Test system: NT2 cells
Test: Response of NT2 cells to growth factors: count of viable spherical cells after three days of culture
Assay type: cell-based, human
Conditions: growth factor present exclusively in growth medium NS; viable cells counted after three days of culture into spheres; FIG. 3
Experimental: This step permits to obtain the first passing over into spheres of NT2 cells that are then cultured, preferably at 100000 cells/ml in 75 ml flasks of the FALCON™ (trademark registered by the Falcon company) type having filtering plugs containing 15 ml of growth medium (NS) not containing bovine serum, defined by the following composition: DMEM/F12 (50%/50%), 2 mM glutamine, N2 complement, 0.6% glucose, 20 μg/ml insulin, to which are added extemporaneously growth factors EGF at 20 ng/ml, bFGF at 10 ng/ml, 2 μg/ml heparin or growth factor LIF at 10 ng/ml or 20 n/ml.
The way NT2 cells respond to growth factors […] and bFGF was studied by counting viable spherical cells obtained after three days of culture in the presence either of the one or the other, either of the one and the other of them then dissociated.
Results represented in FIG. 3 show the number of viable cells after three days, whereas the horizontal line indicates culture density.
Although it was found, unexpectedly, that NT2 cells were capable of forming spheres in the absence of growth factors, they proliferate differently under the action of the latter, and according to the type of growth factors added to the growth medium NS.

Row | Substance | rate of proliferation of NT2 cells multiplied by (with respect to cultures without growth factor)
1 | bFGF: basic fibroblast growth factor, added to growth medium at 10 ng/ml | 2.2
2 | EGF: epidermal growth factor, added to growth medium at 20 ng/ml | 1.5

Source: US20070155012A1, “Method for production of neurons from cells of a cell line” (priority 2003, published 2007)
